Measured values as given in patent US20240376084A1, “INHIBITORS OF ALPHA-HEMOLYSIN OF STAPHYLOCOCCUS AUREUS” (Helmholtz-Zentrum Fur Infektionsforschung GmbH, priority 2021, published 2024).

Key:
[1] = target: hemolysin alpha from Staphylococcus aureus (Staphylococcus aureus, UniProt P09616); assay: cell-based
[2] = target: S. aureus Alpha hemolysin (Staphylococcus aureus, UniProt P09616); assay: cell-based; conditions: A549-LDH Assay activity
S. aureus Alpha hemolysin, sequence (P09616 27-319 limits assumed): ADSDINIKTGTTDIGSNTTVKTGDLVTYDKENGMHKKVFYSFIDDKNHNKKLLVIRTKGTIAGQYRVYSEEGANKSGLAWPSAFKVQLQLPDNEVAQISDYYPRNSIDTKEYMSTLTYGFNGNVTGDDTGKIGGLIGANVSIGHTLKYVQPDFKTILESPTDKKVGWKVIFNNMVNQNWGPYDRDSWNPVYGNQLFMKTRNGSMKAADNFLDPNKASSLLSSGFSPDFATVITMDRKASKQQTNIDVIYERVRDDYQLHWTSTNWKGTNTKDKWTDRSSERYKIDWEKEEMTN

hemolysin alpha from Staphylococcus aureus, sequence (P09616 27-319 limits assumed): as above

Compound | IC50 [1] [nM] | EC50 [2] [nM] | EC50 [1] [nM]
COc1cc(NS(=O)(=O)c2cc3[nH]c(=O)c(=O)[nH]c3cc2C)ccc1-c1ccccc1 [Compound 81, N-(2-methoxy-[1,1′-biphenyl]-4-yl)-7-methyl-2,3-dioxo-1,2,3,4-tetrahydroquinoxaline-6-sulfonamide] | 100 to 1000 | 100 to 1000 | –
Cc1cc2[nH]c(=O)c(=O)[nH]c2cc1S(=O)(=O)Nc1ccc(-c2ccc3c(C)c[nH]c3c2)c(Cl)c1 [Compound 352, N-[3-chloro-4-(3-methyl-1H-indol-6-yl)phenyl]-7-methyl-2,3-dioxo-1,4-dihydroquinoxaline-6-sulfonamide] | – | 100 to 1000 | 100 to 1000
O=c1[nH]c2cc(Cl)c(S(=O)(=O)Nc3ccc(-c4cccc(Cl)c4)c(Cl)c3)cc2[nH]c1=O [Compound 35, 7-chloro-N-(2,3′-dichloro-[1,1′-biphenyl]-4-yl)-2,3-dioxo-1,2,3,4-tetrahydroquinoxaline-6-sulfonamide] | < 30 | 100 to 1000 | –
O=c1[nH]c2cc(Cl)c(S(=O)(=O)Nc3ccc(-c4ccccc4)c(Cl)c3)cc2[nH]c1=O [Compound 14, 7-chloro-N-(2-chloro-[1,1′-biphenyl]-4-yl)-2,3-dioxo-1,2,3,4-tetrahydroquinoxaline-6-sulfonamide] | < 30 | 100 to 1000 | –
Cc1cc2[nH]c(=O)c(=O)[nH]c2cc1S(=O)(=O)Nc1ccc(-c2ccc3cccnc3c2)c(C(F)(F)F)c1 [Compound 365, 7-methyl-2,3-dioxo-N-[4-(7-quinolyl)-3-(trifluoromethyl)phenyl]-1,4-dihydroquinoxaline-6-sulfonamide] | – | 100 to 1000 | < 30
Cc1cc2[nH]c(=O)c(=O)[nH]c2cc1S(=O)(=O)Nc1ccc(-c2ccoc2)c(Cl)c1 [Compound 22, N-(3-chloro-4-(furan-3-yl)phenyl)-7-methyl-2,3-dioxo-1,2,3,4-tetrahydroquinoxaline-6-sulfonamide] | < 30 | 100 to 1000 | –
Cc1ccc(-c2ccc(NS(=O)(=O)c3cc4[nH]c(=O)c(=O)[nH]c4cc3Cl)cc2Cl)o1 [Compound 146, 7-chloro-N-(3-chloro-4-(5-methylfuran-2-yl)phenyl)-2,3-dioxo-1,2,3,4-tetrahydroquinoxaline-6-sulfonamide] | 100 to 1000 | 1000 to 6000 | –
Cc1cccc(-c2c(C)cc(NS(=O)(=O)c3cc4[nH]c(=O)c(=O)[nH]c4cc3C)cc2C)c1 [Compound 175, 7-methyl-2,3-dioxo-N-(2,3′,6-trimethyl-[1,1′-biphenyl]-4-yl)-1,2,3,4-tetrahydroquinoxaline-6-sulfonamide] | 100 to 1000 | 100 to 1000 | –
Cc1cc2[nH]c(=O)c(=O)[nH]c2cc1S(=O)(=O)Nc1ccc(-c2ccc(F)cc2)c(OC(F)(F)F)c1 [Compound 327, N-[4-(4-fluorophenyl)-3-(trifluoromethoxy)phenyl]-7-methyl-2,3-dioxo-1,4-dihydroquinoxaline-6-sulfonamide] | – | 100 to 1000 | 100 to 1000
CCOC(=O)c1ccccc1-c1ccc(NS(=O)(=O)c2cc3[nH]c(=O)c(=O)[nH]c3cc2C)cc1Cl [Compound 138, ethyl 2′-chloro-4′-((7-methyl-2,3-dioxo-1,2,3,4-tetrahydroquinoxaline)-6-sulfonamido)-[1,1′-biphenyl]-2-carboxylate] | 1000 to 3500 | 1000 to 6000 | –
Cc1cc2[nH]c(=O)c(=O)[nH]c2cc1S(=O)(=O)Nc1ccc(-c2ccc3c(c2)NC(=O)CO3)c(C(F)(F)F)c1 [Compound 367, 7-methyl-2,3-dioxo-N-[4-(3-oxo-4H-1,4-benzoxazin-6-yl)-3-(trifluoromethyl)phenyl]-1,4-dihydroquinoxaline-6-sulfonamide] | – | 30 to 100 | < 30
O=c1[nH]c2cc(OCC(F)(F)F)c(S(=O)(=O)Nc3ccc(OC(F)(F)F)cc3)cc2[nH]c1=O [Compound 276, 2,3-dioxo-7-(2,2,2-trifluoroethoxy)-N-[4-(trifluoromethoxy)phenyl]-1,4-dihydroquinoxaline-6-sulfonamide] | – | < 30 | 30 to 100
Cc1cc2[nH]c(=O)c(=O)[nH]c2cc1S(=O)(=O)Nc1ccc(-c2ccc3c(c2)NC(=O)CO3)c(Cl)c1 [Compound 355, N-[3-chloro-4-(3-oxo-4H-1,4-benzoxazin-6-yl)phenyl]-7-methyl-2,3-dioxo-1,4-dihydroquinoxaline-6-sulfonamide] | – | < 30 | < 30
O=c1[nH]c2cc(Cl)c(S(=O)(=O)Nc3ccc(OC(F)(F)F)cc3)cc2[nH]c1=O [Compound 47, 7-chloro-2,3-dioxo-N-(4-(trifluoromethoxy)phenyl)-1,2,3,4-tetrahydroquinoxaline-6-sulfonamide] | 30 to 100 | 30 to 100 | –
Cc1cc2[nH]c(=O)c(=O)[nH]c2cc1S(=O)(=O)Nc1ccc(-c2ccccc2C(=O)O)cc1 [Compound 182, 4′-((7-methyl-2,3-dioxo-1,2,3,4-tetrahydroquinoxaline)-6-sulfonamido)-[1,1′-biphenyl]-2-carboxylic acid] | 1000 to 3500 | 1000 to 6000 | –
Cc1cc(NS(=O)(=O)c2cc3[nH]c(=O)c(=O)[nH]c3cc2F)cc(C)c1-c1ccccc1 [Compound 74, N-(2,6-dimethyl-[1,1′-biphenyl]-4-yl)-7-fluoro-2,3-dioxo-1,2,3,4-tetrahydroquinoxaline-6-sulfonamide] | 100 to 1000 | 100 to 1000 | –

Compound | IC50 [1] [nM] | EC50 [2] [nM] | EC50 [1] [nM]
CC(=O)Nc1cc(-c2ccc(NS(=O)(=O)c3cc4[nH]c(=O)c(=O)[nH]c4cc3C)cc2C(F)(F)F)ccc1O [Compound 346, N-[2-hydroxy-5-[4-[(7-methyl-2,3-dioxo-1,4-dihydroquinoxalin-6-yl)sulfonylamino]-2-(trifluoromethyl)phenyl]phenyl]acetamide] | – | 100 to 1000 | 30 to 100
COc1ccccc1-c1ccc(NS(=O)(=O)c2cc3[nH]c(=O)c(=O)[nH]c3cc2C)cc1 [Compound 114, N-(2′-methoxy-[1,1′-biphenyl]-4-yl)-7-methyl-2,3-dioxo-1,2,3,4-tetrahydroquinoxaline-6-sulfonamide] | 100 to 1000 | 100 to 1000 | –
COc1cc2[nH]c(=O)c(=O)[nH]c2cc1S(=O)(=O)Nc1ccc(C(F)(F)F)cc1 [Compound 400, 7-methoxy-2,3-dioxo-N-[4-(trifluoromethyl)phenyl]-1,4-dihydroquinoxaline-6-sulfonamide] | – | 100 to 1000 | 1000 to 3500
O=c1[nH]c2cc(Cl)c(S(=O)(=O)Nc3ccc(C(F)(F)F)c(Cl)c3)cc2[nH]c1=O [Compound 143, 7-chloro-N-(3-chloro-4-(trifluoromethyl)phenyl)-2,3-dioxo-1,2,3,4-tetrahydroquinoxaline-6-sulfonamide] | 100 to 1000 | 1000 to 6000 | –
Cc1cc2[nH]c(=O)c(=O)[nH]c2cc1S(=O)(=O)Nc1ccc(-c2cccc(N3CCCC3)c2)c(Cl)c1 [Compound 6, N-(2-chloro-3′-(pyrrolidin-1-yl)-[1,1′-biphenyl]-4-yl)-7-methyl-2,3-dioxo-1,2,3,4-tetrahydroquinoxaline-6-sulfonamide] | < 30 | 100 to 1000 | –
Cc1cc(C2CC2)ccc1NS(=O)(=O)c1cc2[nH]c(=O)c(=O)[nH]c2cc1C [Compound 110, N-(4-cyclopropyl-2-methylphenyl)-7-methyl-2,3-dioxo-1,2,3,4-tetrahydroquinoxaline-6-sulfonamide] | 100 to 1000 | 30 to 100 | –
O=c1[nH]c2cc(F)c(S(=O)(=O)Nc3ccc(-c4cccc(N5CCCC5)c4)c(Cl)c3)cc2[nH]c1=O [Compound 27, N-(2-chloro-3′-(pyrrolidin-1-yl)-[1,1′-biphenyl]-4-yl)-7-fluoro-2,3-dioxo-1,2,3,4-tetrahydroquinoxaline-6-sulfonamide] | < 30 | 1000 to 6000 | –
Cc1cc(-c2ccc(NS(=O)(=O)c3cc4[nH]c(=O)c(=O)[nH]c4cc3C)cc2Cl)ccn1 [Compound 140, N-(3-chloro-4-(2-methylpyridin-4-yl)phenyl)-7-methyl-2,3-dioxo-1,2,3,4-tetrahydroquinoxaline-6-sulfonamide] | 100 to 1000 | 100 to 1000 | –
COc1cc2[nH]c(=O)c(=O)[nH]c2cc1S(=O)(=O)Nc1ccc(SC(F)(F)F)cc1 [Compound 399, 7-methoxy-2,3-dioxo-N-[4-(trifluoromethylsulfanyl)phenyl]-1,4-dihydroquinoxaline-6-sulfonamide] | – | 100 to 1000 | 1000 to 3500
O=c1[nH]c2cc(F)c(S(=O)(=O)Nc3ccc(-c4ccsc4)c(Cl)c3)cc2[nH]c1=O [Compound 82, N-(3-chloro-4-(thiophen-3-yl)phenyl)-7-fluoro-2,3-dioxo-1,2,3,4-tetrahydroquinoxaline-6-sulfonamide] | 100 to 1000 | 1000 to 6000 | –
Cc1cc2[nH]c(=O)c(=O)[nH]c2cc1S(=O)(=O)Nc1ccc(-c2cc(F)ccc2F)c(Cl)c1 [Compound 295, N-[3-chloro-4-(2,5-difluorophenyl)phenyl]-7-methyl-2,3-dioxo-1,4-dihydroquinoxaline-6-sulfonamide] | – | 100 to 1000 | 30 to 100
O=c1[nH]c2cc(Cl)c(S(=O)(=O)Nc3ccc4c(c3)CCCC4)cc2[nH]c1=O [Compound 174, 7-chloro-2,3-dioxo-N-(5,6,7,8-tetrahydronaphthalen-2-yl)-1,2,3,4-tetrahydroquinoxaline-6-sulfonamide] | 100 to 1000 | 30 to 100 | –
C#Cc1ccc(-c2ccc(NS(=O)(=O)c3cc4[nH]c(=O)c(=O)[nH]c4cc3C)cc2C#C)cc1 [Compound 251, N-(2,4′-diethynyl-[1,1′-biphenyl]-4-yl)-7-methyl-2,3-dioxo-1,2,3,4-tetrahydroquinoxaline-6-sulfonamide] | – | < 30 | < 30
O=c1[nH]c2cc(Cl)c(S(=O)(=O)Nc3ccc(C(F)(F)F)cc3)cc2[nH]c1=O [Compound 93, 7-chloro-2,3-dioxo-N-(4-(trifluoromethyl)phenyl)-1,2,3,4-tetrahydroquinoxaline-6-sulfonamide] | 100 to 1000 | 100 to 1000 | –
O=c1[nH]c2cc(Cl)c(S(=O)(=O)Nc3ccc4ccccc4c3)cc2[nH]c1=O [Compound 172, 7-chloro-N-(naphthalen-2-yl)-2,3-dioxo-1,2,3,4-tetrahydroquinoxaline-6-sulfonamide] | 100 to 1000 | 100 to 1000 | –
